ChEMBL document CHEMBL1201862, “PubChem BioAssay data set” (2004)
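Compound exposure: 48 hours, 5 concentrations, 96-well plates. Abbreviation: GI50, concentration required for 50% inhibition of growth.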 The source made the active and inactive calls. Rule as the data show it: active = GI50 up to about 1.1 µM and inactive = higher.

Key:
Assay in all cases: inhibition of tumour cell growth, NCI panel, 48 h
[1] = tested on: 786-0
[2] = tested on: ACHN
[3] = tested on: BT-549
[4] = tested on: EKVX
[5] = tested on: HCT-116
[6] = tested on: HL-60
[7] = tested on: HOP-62
[8] = tested on: HOP-92
[9] = tested on: IGROV-1
[10] = tested on: K562
[11] = tested on: KM12
[12] = tested on: M14
[13] = tested on: NCI-H226
[14] = tested on: NCI-H23
[15] = tested on: OVCAR-4
[16] = tested on: OVCAR-8
[17] = tested on: PC-3
[18] = tested on: SN12C
[19] = tested on: SNB-19

Row | SMILES | GI50 [1] | GI50 [2] | GI50 [3] | GI50 [4] | GI50 [5] | GI50 [6] | GI50 [7] | GI50 [8] | GI50 [9] | GI50 [10] | GI50 [11] | GI50 [12] | GI50 [13] | GI50 [14] | GI50 [15] | GI50 [16] | GI50 [17] | GI50 [18] | GI50 [19]
1 | O=C(Nc1cccc(-c2cn3ccccc3n2)c1)c1ccncc1 | 64.4 µM (inactive) | 41.1 µM (inactive) | 21.7 µM (inactive) | 60.1 µM (inactive) | 33.1 µM (inactive) | 20.1 µM (inactive) | 33.2 µM (inactive) | 98.2 µM (inactive) | 40.9 µM (inactive) | 24.6 µM (inactive) | 32.6 µM (inactive) | 33.7 µM (inactive) | 56.5 µM (inactive) | 23.6 µM (inactive) | 34.7 µM (inactive) | 34 µM (inactive) | 35.9 µM (inactive) | 32.7 µM (inactive) | 99.3 µM (inactive)
2 | Cc1cc(N(CCOS(C)(=O)=O)CCOS(C)(=O)=O)ccc1/C=N/c1ccc(-c2csc(-c3ccccc3)n2)c(Cl)c1 | 2.05 µM (inactive) | 0.575 µM (active) | 19.2 µM (inactive) | 4.47 µM (inactive) | 12.8 µM (inactive) | 2.45 µM (inactive) | 6.05 µM (inactive) | 9.64 µM (inactive) | 8.2 µM (inactive) | 6.28 µM (inactive) | 11.2 µM (inactive) | 8.67 µM (inactive) | 9.12 µM (inactive) | 5.98 µM (inactive) | 16 µM (inactive) | 15.9 µM (inactive) | 14.8 µM (inactive) | 8.81 µM (inactive) | 4.66 µM (inactive)
3 | CS(=O)(=O)Nc1ccc2c(c1)N(S(C)(=O)=O)CC2CCl (centres undefined) | > 100 µM (inactive) | > 100 µM (inactive) | > 100 µM (inactive) | > 100 µM (inactive) | > 100 µM (inactive) | > 100 µM (inactive) | > 100 µM (inactive) | > 100 µM (inactive) | > 100 µM (inactive) | > 100 µM (inactive) | > 100 µM (inactive) | – | > 100 µM (inactive) | > 100 µM (inactive) | > 100 µM (inactive) | > 100 µM (inactive) | > 100 µM (inactive) | > 100 µM (inactive) | –
4 | COc1c2ccoc2cc2oc(=O)ccc12 [BERGAPTEN] | > 100 µM (inactive) | > 100 µM (inactive) | 49 µM (inactive) | 18.7 µM (inactive) | > 100 µM (inactive) | > 100 µM (inactive) | > 100 µM (inactive) | > 100 µM (inactive) | > 100 µM (inactive) | > 100 µM (inactive) | – | > 100 µM (inactive) | > 100 µM (inactive) | > 100 µM (inactive) | > 100 µM (inactive) | > 100 µM (inactive) | > 100 µM (inactive) | > 100 µM (inactive) | > 100 µM (inactive)
5 | CN1C(=O)C(O)C[C@@H]1c1ccccc1 (some centres undefined) | > 100 µM (inactive) | > 100 µM (inactive) | > 100 µM (inactive) | > 100 µM (inactive) | > 100 µM (inactive) | > 100 µM (inactive) | > 100 µM (inactive) | > 100 µM (inactive) | > 100 µM (inactive) | – | > 100 µM (inactive) | > 100 µM (inactive) | > 100 µM (inactive) | > 100 µM (inactive) | > 100 µM (inactive) | > 100 µM (inactive) | > 100 µM (inactive) | > 100 µM (inactive) | > 100 µM (inactive)
6 | COc1cc(-c2ccccc2N)c2cccnc2c1OC | 2.83 µM (inactive) | 3.71 µM (inactive) | 9.14 µM (inactive) | 5.06 µM (inactive) | 1.36 µM (inactive) | 3.98 µM (inactive) | 5.26 µM (inactive) | 9.53 µM (inactive) | 2.97 µM (inactive) | 4.78 µM (inactive) | 6.07 µM (inactive) | 6.28 µM (inactive) | 11.6 µM (inactive) | 4.94 µM (inactive) | 6.3 µM (inactive) | – | 8.55 µM (inactive) | 3.93 µM (inactive) | 4.75 µM (inactive)
